According to paper PMC4718634, “Murine GPRC6A Mediates Cellular Responses to L-Amino Acids, but Not Osteocalcin Variants” (PLoS ONE, 2016):
“Also recorded” adds a separate entry of the source. One block for each molecule: values may come before it. Ends that are not written are not given here.

Assays:
mGPRC6A (mouse GPRC6A) = target: T1, mGPRC6A (mouse GPRC6A) (Mus musculus, UniProt Q8K4Z6); assay: Label-free cell impedance (xCELLigence), tetracycline-induced FlpIn-TREx-HEK293-mGPRC6A cells; format: cell-based; conditions: tetracycline-induced; xCELLigence; Fig 4
T1 sequence (Q8K4Z6 21-928): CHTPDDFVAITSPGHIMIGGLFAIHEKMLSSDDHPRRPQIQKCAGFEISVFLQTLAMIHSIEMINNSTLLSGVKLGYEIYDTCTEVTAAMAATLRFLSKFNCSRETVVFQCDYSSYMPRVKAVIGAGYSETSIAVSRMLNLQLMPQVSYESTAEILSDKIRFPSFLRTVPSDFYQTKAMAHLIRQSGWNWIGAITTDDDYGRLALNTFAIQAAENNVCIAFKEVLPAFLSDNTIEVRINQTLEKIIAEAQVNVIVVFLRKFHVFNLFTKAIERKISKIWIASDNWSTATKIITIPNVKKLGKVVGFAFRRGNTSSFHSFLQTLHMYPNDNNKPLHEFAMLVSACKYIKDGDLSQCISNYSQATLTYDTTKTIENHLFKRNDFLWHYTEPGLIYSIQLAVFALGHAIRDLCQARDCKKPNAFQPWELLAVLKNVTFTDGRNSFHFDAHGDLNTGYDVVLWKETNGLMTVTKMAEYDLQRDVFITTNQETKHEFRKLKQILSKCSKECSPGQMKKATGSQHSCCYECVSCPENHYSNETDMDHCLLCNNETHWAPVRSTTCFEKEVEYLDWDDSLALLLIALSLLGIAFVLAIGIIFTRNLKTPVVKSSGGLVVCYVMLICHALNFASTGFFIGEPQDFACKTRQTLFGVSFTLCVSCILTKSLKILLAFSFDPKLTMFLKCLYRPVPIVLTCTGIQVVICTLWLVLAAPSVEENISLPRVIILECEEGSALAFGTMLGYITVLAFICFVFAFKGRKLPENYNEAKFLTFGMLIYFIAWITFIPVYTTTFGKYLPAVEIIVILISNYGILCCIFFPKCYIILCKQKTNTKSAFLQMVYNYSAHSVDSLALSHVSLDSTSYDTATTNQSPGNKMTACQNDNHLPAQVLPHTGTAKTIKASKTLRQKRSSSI
Protocol: (§1) 2.5 x 10^7 FlpIn-TREx-HEK293-mGPRC6A cells were seeded in a T175 flask and incubated overnight at 37°C in 5% CO2. Cells were then transfected with 35 μg of plasmid DNA (GαqG66D) with Lipofectamine LTX according to manufacturer's instructions, then incubated for 24h at 37°C in 5% CO2. Prior to the experiment, a background reading for each E-plate 96 (Bio-Rad, CA, USA) was measured after addition of 100 μl DMEM + 10% FBS per well. Cells were recovered using Versene and seeded at a 10^5 cells/well density in 200 μl DMEM + 10% FBS (containing 1 μg/ml tetracycline where indicated). Cells were washed 2 x 2 h in HBSS buffer (pH 7.2) containing 20 mM HEPES, 1 mM CaCl2 and 0.1% BSA (w/v) in a total volume of 180 μl. Test compounds (20 μl at 10x final concentration) were added to the plate and cell impedance was monitored for 3 h. Cell index was normalised to the buffer response (minus the baseline response at zero time point).
(§2) Concentration-response data were analysed using a three or four parameter logistic function (Motulsky & Christopoulos, 2004) to generate estimates of agonist potency (LogEC50). Data for all HEK293 assays represent the mean ± SEM of at least three independent experiments (except cell impedance, n = 2). For GLP-1 release, the data represent mean ± SEM of three to five independent experiments (except for OCN, wash; n = 2). For insulin release assays, data represent the mean ± SEM of three independent experiments (except for islet studies; n = 2). Insulin release data were normalised to the response to vehicle in either low or high [glucose]. Statistical analysis for GLP-1 release data were performed by one-way ANOVA, followed by Sidak’s multiple comparisons test (treating wash / no wash datasets separately). Statistical analyses for insulin release data were performed by two-way ANOVA (with [glucose] and drug treatment as group variables), followed by Sidak’s multiple comparisons test. Where only high [glucose] groups were evaluated, statistical analysis was by one-way ANOVA followed by Sidak’s multiple comparisons test.

[1] = test system: un-induced FlpIn-TREx-HEK293-mGPRC6A cells; assay: Label-free cell impedance, un-induced FlpIn-TREx-HEK293-mGPRC6A cells; format: cell-based; conditions: Fig 4
Protocol: as §1

hC6A = conditions: ref [9] (supplement list); cited from earlier work
Text: (§3) Supplement pone.0146846.s004.docx, table 1 | column: Functional assay

22RV1 / PC-3 = conditions: endogenous; ref [9] (supplement list); cited from earlier work
Text: as §3

MIN6 cells = assay: Insulin release from MIN6 cells; format: cell-based, murine; conditions: 16.7 mM glucose; P < 0.0001, two-way ANOVA; Fig 6B
Protocol: (§4) MIN6 or βTC-6 cells were seeded in 24-well plates at 170,000 cells per well in DMEM (containing 4.5g/L glucose, 10 mM HEPES, 100 U/ml penicillin, 100 μg/ml streptomycin and 15% de-complemented FBS) and incubated at 37°C / 5% CO2 for 72 h. Cells were then washed with 500 μl PBS and incubated in 500 μl deprivation media (DMEM with zero glucose, 10 mM HEPES, 1 mM Na-pyruvate, 100 U/ml penicillin, 100 μg/ml streptomycin, 15% de-complemented FBS) for 2 h at 37°C. Media was aspirated and after washing with 500 μl PBS, cells were treated with 250 μl of Krebs buffer (250 mM NaCl, 5.9 mM KCl, 1.2 mM MgCl2, 1.3 mM CaCl2, 25 mM HEPES, 0.1% BSA (w/v), and 2 mM or 16.7 mM glucose; pH 7.4) in the presence or absence of test compound. After incubation for 2 h at 37°C, the assay was terminated by placing the plates on ice and supernatants were transferred to a 96-well plate in preparation for insulin ELISA (Alpco) following manufacturer’s instructions. The cell monolayer was washed twice with 500 μl of PBS and then lysed using 250 μl of 1 N NaOH prior to protein measurement by the method of Bradford (1976).
as §2

β-TC6 cells = assay: Insulin release from β-TC6 cells; format: cell-based, murine; conditions: P < 0.001, P < 0.0001, two-way ANOVA, S3 Fig A
Protocol: as §4, §2

mouse pancreatic islets = assay: Insulin release from mouse pancreatic islets; format: cell-based; conditions: n = 2; P < 0.001, P < 0.0001; S3 Fig B
Protocol: Islets were collagenase-isolated from mice (10 x C57Bl/6; 12–13 weeks; Charles River) and incubated overnight in RPMI (with 10% FBS (v/v), 10 mM HEPES, 100 U/ml penicillin, 100 μg/ml streptomycin, sodium pyruvate and 10 mM glucose) at 37°C in 5% CO2. Islets were seeded into a 96-well plate (4 / well) in Kreb’s buffer containing 2.8 mM glucose and washed twice with the same buffer. 200 μl test drugs were added in Kreb’s buffer with the required concentration of glucose and incubated at 37°C in 5% CO2 for 90 min. The plate was centrifuged for 10 s at 200 g, supernatant recovered and insulin levels detected as described above. This protocol was approved by the IDRS (Institut de Recherches Servier) Institutional Animal Care and Use Committee.
as §2

INS-1(832) cells = assay: Label-free cell impedance, INS-1(832) cells; format: cell-based, rat; conditions: Gprc6a-negative, EBSS, 2.8 mM glucose, Fig 7, two-way ANOVA, *P < 0.05, **P < 0.01 vs Vehicle
Protocol: For INS-1 cells, 100 μl of medium (RPMI 1640 no glucose, 10% FBS, 55 μM β-mercaptoethanol, 1 mM sodium pyruvate, 10 mM HEPES, 100 U/ml penicillin, 100 μg/ml streptomycin, 11.1 mM glucose) was added per well to an E-plate 96 and a background reading taken. Cells were seeded at 2 x 10^4 / well and the plates incubated in the instrument for 48 h. On the day of the experiment, media was changed to EBSS buffer (180 μl; 2.8 mM glucose, 1.8 mM CaCl2, 5.3 mM KCl, 0.8 mM MgSO4, 117 mM NaCl, 26 mM NaHCO3, 1 mM NaH2PO4). After 2 h incubation, cells were stimulated with 20 μl test compound (10 x final) prepared in the same buffer. Data capture and analysis were as for HEK293 cells.

Molecule: Nc1ncnc2c1ncn2[C@@H]1O[C@H](COP(=O)(O)OP(=O)(O)OP(=O)(O)O)[C@@H](O)[C@H]1O [ATP]
cell impedance (cell index) response (mGPRC6A (mouse GPRC6A)): concentration-dependent increase in cell index; also recorded: increases cellular impedance
cell impedance (cell index) response [1]: concentration-dependent increase in cell index; also recorded: increases cellular impedance

Molecule: [Cl-].[Cl-].[Zn+2] [ZnCl2]
pERK1/2 response (hC6A): pERK1/2 – response to Ca^2+, ZnCl2, OCN, Arginine, Testosterone-BSA
pERK1/2 response (22RV1 / PC-3): pERK1/2 – response to Ca^2+, ZnCl2, OCN, Arginine, Testosterone-BSA Proliferation – response to Ca^2+, OCN PSA, Runx2 expression – response to OCN, Arg, R1881 Chemotaxis (22RV1) – response to Ca^2+, OCN

Molecule: OC[C@H]1OC(O)[C@H](O)[C@@H](O)[C@@H]1O (stereo partly drawn) [glucose]
insulin secretion, glucose effect (MIN6 cells): significantly promoted insulin secretion; also recorded: significantly enhanced insulin secretion
insulin secretion, glucose effect (β-TC6 cells): released insulin in a glucose-sensitive manner
insulin secretion, glucose effect (β-TC6 cells; listed as Glucose): significantly enhanced insulin secretion
insulin secretion, glucose effect (mouse pancreatic islets): released insulin in a glucose-sensitive manner; also recorded: significantly enhanced insulin secretion

cell impedance (cell index) response (mGPRC6A (mouse GPRC6A)): did not change cell impedance
Molecule: Bovine OCN: Purified bovine osteocalcin from bone (Meridian Life Science), carboxylated / under-carboxylated (YLDHWLGAPAPYPDPLEPKREVCELNPDCDELADHIGFQEAYRRFYGPV; ends and bridges not checked; also: γ-carboxyglutamic acid residues, partially carboxylated)
cell impedance (cell index) response [1]: did not change cell impedance
change in cell impedance (cell index) (INS-1(832) cells): significant, concentration-dependent activity
change in cell impedance (cell index) (INS-1(832) cells; listed as purified bovine OCN): significant changes in cell impedance; also recorded: Concentration-dependent increases in cell index
